According to PubChem BioAssay AID1918936 (Molecular Pharmacology Branch, DTP, NCI, 2023):
Several values for one entry are separate records, joined by “and”; a condition that tells them apart may be missing. Equal values may be shown once.

Test system: 349418-098-R-PDC complex spheroid viability
Assay: Anticancer human tumor 349418-098-R-PDC patient-derived lung adenocarcinoma cell line growth inhibition
Conditions: for viability, T/C: stronger effect = lower value; active = viability on the fitted dose curve at most 10% of control; inactive = the rest
Text: Multicellular complex tumor spheroid response to LSD1 Inhibitor Iadademstat in combination with a variety of drugs and investigational agents in selected tumor cell lines
The current study was undertaken to assess response to LSD1 inhibitors in combination with standard-of-care drugs and investigational agents in solid tumor complex spheroid models as well as in the K-562 leukemia. Complex spheroids include a stromal component modeled by human endothelial cells (HUVEC) and fibroblasts modeled by human mesenchymal stem cells (MSCs). The concentration ranges selected for each drug and investigational agent were based upon clinically achievable concentrations if the clinical Cmax of the agent was known.
Compounds. The drugs and investigational agents used in this study are listed on Table 1. All of the agents used, including staurosporine (NSC755774) and gemcitabine (NSC613327), were obtained from the Developmental Therapeutics Program, NCI. FDA-approved anticancer drugs are available from the NCI at http://dtp.nci.nih.gov/branches/dscb/oncology_drugset_explanation.html. Drugs and investigational agents were >95% pure by proton nuclear magnetic resonance (NMR) and liquid chromatography/mass spectrometry (LC/MS). Stock solutions were prepared at 400x in DMSO, stored at -70 degrees C, and diluted in fresh medium prior to their use. The final concentration of DMSO in cell culture wells never exceeded 0.25% (v/v). The FDA-approved anticancer drug set is available from the Developmental Therapeutics Program at https://dtp.cancer.gov/organization/dscb/obtaining/available_plates.htm. All drugs and investigational agents were tested over a range starting from a high concentration at or near the clinical Cmax and decreasing in half-log increments. If the clinical Cmax for an agent had not been determined, the highest concentration tested was 10 microM.
Cell Lines. The patient-derived cancer cell (PDC) lines: 292921-168-R-J2-PDC, K24384-001-R-PDC, and 521955-158-R2-J5-PDC pancreatic carcinomas, 556581-035-R-J1 ovarian carcinoma, 324938-238-R-J1-PDC, 855422-203-R-J1-PDC and 883617-216-R-J1-PDC urothelial bladder carcinomas, 743489-274-T-PDC renal cell carcinoma, 138582-R-J1 Merkel cell tumor, K60290-347-R-J1 and K57222-313-R-J1-PDC glioblastomas, 653999-131-R-J2-PDC, LG0703-F948-PDC, and 349418-098-R-PDC non-small cell lung carcinomas, 885512-296-R-J2-PDC, 171881-019-R-J1-PDC breast carcinomas and 186277-243-T-J2-PDC and 233499-124-R-J2-PDC colon carcinomas were obtained from the NCI Patient-Derived Models Repository (PDMR, https://pdmr.cancer.gov). The established cell lines NCI/ADR-RES (RRID:CVCL_14520 and OVCAR-5 (RRID:CVCL_1628) ovarian carcinomas, 786-O (RRID:CVCL_1051) and A498 (RRID:CVCL_A498) renal cell carcinoma, NCI-H211 (ATCC, cat. CRL-5824; RRID:CVCL_1529), NCI-H196 (ATCC, cat. CRL-5823, RRID:CVCL_1509), SW 1271 (ATCC, cat. CRL-2177, RRID:CVCL_1716) and NCI-H1876 (ATCC, cat. CRL-5902, RRID:CVCL_1503) small cell lung carcinomas, MDA-MB-231 (RRID:CVCL_0062) and MDA-MB-468 (RRID:CVCL_0419)breast carcinomas (10-12). Pooled donor human umbilical vein endothelial cells (HUVEC, Lonza, cat. CC-2519) and human mesenchymal stem cells (hMSC, Lonza, cat. PT-2501) were purchased from Lonza (Walkersville, MD).
Cell Culture. All cells were maintained in an incubator at 37 degrees C and 5% CO2 with 95% humidity. The PDC lines were cultured according to standard operating procedures established by the NCI PDMR (https://pdmr.cancer.gov). Briefly all PDCs were thawed and cultured in Matrigel-coated flasks prepared with a working solution of 1X Ham's F-12 nutrient mix, without supplementation (Invitrogen, Waltham, MA, cat. 11765054), 100 U/mL penicillin-streptomycin (Invitrogen, cat. 15140122), and 2.5% Matrigel (Corning Inc., Corning, NY, cat. 354248) for the first three passages. […]

[1] = curve of first compound, second compound 0.1 µM
[2] = curve of first compound, second compound 0.316 µM
[3] = curve of first compound, second compound 1 µM
[4] = curve of first compound, second compound 3.16 µM
[5] = curve of first compound, second compound 10 µM
[6] = second compound 0.1 µM, first compound 0.00949 µM
[7] = second compound 0.1 µM, first compound 0.03 µM
[8] = second compound 0.1 µM, first compound 0.0949 µM
[9] = second compound 0.1 µM, first compound 0.3 µM
[10] = second compound 0.316 µM, first compound 0.00949 µM
[11] = second compound 0.316 µM, first compound 0.03 µM
[12] = second compound 0.316 µM, first compound 0.0949 µM
[13] = second compound 0.316 µM, first compound 0.3 µM
[14] = second compound 1 µM, first compound 0.00949 µM
[15] = second compound 1 µM, first compound 0.03 µM
[16] = second compound 1 µM, first compound 0.0949 µM
[17] = second compound 1 µM, first compound 0.3 µM
[18] = second compound 3.16 µM, first compound 0.00949 µM
[19] = second compound 3.16 µM, first compound 0.03 µM
[20] = second compound 3.16 µM, first compound 0.0949 µM
[21] = second compound 3.16 µM, first compound 0.3 µM
[22] = second compound 10 µM, first compound 0.00949 µM
[23] = second compound 10 µM, first compound 0.03 µM
[24] = second compound 10 µM, first compound 0.0949 µM
[25] = second compound 10 µM, first compound 0.3 µM
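Note: spheroids exposed to agents for seven days before readout.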

Nc1ncn(C2CC(O)C(CO)S2)c(=O)n1 (stereo not given)
inactive: viability, T/C (compound 0.000949 µM) 104% and 92.4% | viability, T/C (compound 0.003 µM) 84% and 91.7% | viability, T/C (compound 0.00949 µM) 64.8% and 63.6% | viability, T/C (compound 0.03 µM) 33.8% and 29.8% | viability, T/C (compound 0.0949 µM) 16.8% and 11.8%
15.8 nM and 15.5 nM: IC50 (curve of compound)
active: viability, T/C (compound 0.3 µM) 8.91% and 5.28%

CC1COCCN1c1cc(-c2ccnn2C)c2ccnc(-c3ccn[nH]3)c2n1 (stereo not given)
13.2 nM and < 3.16 nM: IC50 (curve of compound)
14.5% and 8.01%: viability, T/C (compound 0.0316 µM)
inactive: viability, T/C (compound 0.00316 µM) 104% and 25.4% | viability, T/C (compound 0.01 µM) 61.4% and 14.9%
active: viability, T/C (compound 0.1 µM) 8.8% and 6.27% | viability, T/C (compound 0.316 µM) 7.72% and 5.55% | viability, T/C (compound 1 µM) 5.78% and 4.24%

Nc1ccccc1NC(=O)c1ccc(CNC(=O)OCc2cccnc2)cc1
active: viability, T/C (compound 3 µM) 5.6% and 3.19%
inactive: viability, T/C (compound 0.00949 µM) 92.5% and 80.8% | viability, T/C (compound 0.03 µM) 83% and 67.2% | viability, T/C (compound 0.0949 µM) 63.3% and 46.6% | viability, T/C (compound 0.3 µM) 44.4% and 22.8%
200 nM and 77.3 nM: IC50 (curve of compound)
17.9% and 5.31%: viability, T/C (compound 0.949 µM)

CCc1c2c(nc3ccc(O)cc13)-c1cc3c(c(=O)n1C2)COC(=O)[C@]3(O)CC + NC1CCC(NC2CC2c2ccccc2)CC1
< 0.949 nM: IC50 [1] | IC50 [2] | IC50 [3] | IC50 [4] | IC50 [5]
active: viability, T/C (second compound 0.1 µM, first compound 0.000949 µM) 4.09% | viability, T/C (second compound 0.1 µM, first compound 0.003 µM) 2.43% | viability, T/C [6] 2.12% | viability, T/C [7] 1.2% | viability, T/C [8] 1.37% | viability, T/C [9] 1.52% | viability, T/C (second compound 0.316 µM, first compound 0.000949 µM) 3.85% | viability, T/C (second compound 0.316 µM, first compound 0.003 µM) 2.61% | viability, T/C [10] 2.07% | viability, T/C [11] 1.29% | viability, T/C [12] 1.05% | viability, T/C [13] 1.44% | viability, T/C (second compound 1 µM, first compound 0.000949 µM) 4.08% | viability, T/C (second compound 1 µM, first compound 0.003 µM) 2.65% | viability, T/C [14] 1.89% | viability, T/C [15] 1.41% | viability, T/C [16] 1.14% | viability, T/C [17] 1.59% | viability, T/C (second compound 3.16 µM, first compound 0.000949 µM) 3.68% | viability, T/C (second compound 3.16 µM, first compound 0.003 µM) 2.54% | viability, T/C [18] 1.99% | viability, T/C [19] 1.37% | viability, T/C [20] 1.05% | viability, T/C [21] 1.61% | viability, T/C (second compound 10 µM, first compound 0.000949 µM) 3.85% | viability, T/C (second compound 10 µM, first compound 0.003 µM) 2.63% | viability, T/C [22] 2.13% | viability, T/C [23] 1.59% | viability, T/C [24] 1.21% | viability, T/C [25] 1.47%

COc1ccc([C@@H](O)c2cc(-c3ncnc4cc(N5CCOCC5)ccc34)c(F)cc2Cl)nn1
384 nM and 740 nM: IC50 (curve of compound)
active: viability, T/C (compound 10 µM) 6.34% and 4.43%
inactive: viability, T/C (compound 0.0316 µM) 91.6% and 95.8% | viability, T/C (compound 0.1 µM) 79.4% and 83.2% | viability, T/C (compound 0.316 µM) 53.7% and 74.8% | viability, T/C (compound 1 µM) 29.1% and 41.5% | viability, T/C (compound 3.16 µM) 9.45% and 15%

CCN(c1cc(-c2ccc(CN3CCOCC3)cc2)cc(C(=O)NCc2c(C)cc(C)[nH]c2=O)c1C)C1CCOCC1 + NC1CCC(NC2CC2c2ccccc2)CC1
inactive: viability, T/C [6] 107% | viability, T/C [7] 93.5% | viability, T/C [8] 82.9% | viability, T/C [9] 70.5% | viability, T/C (second compound 0.1 µM, first compound 0.949 µM) 59.3% | viability, T/C (second compound 0.1 µM, first compound 3 µM) 60% | viability, T/C [10] 99.1% | viability, T/C [11] 105% | viability, T/C [12] 90.1% | viability, T/C [13] 77.5% | viability, T/C (second compound 0.316 µM, first compound 0.949 µM) 69.3% | viability, T/C (second compound 0.316 µM, first compound 3 µM) 62.2% | viability, T/C [14] 106% | viability, T/C [15] 88.7% | viability, T/C [16] 98% | viability, T/C [17] 75.6% | viability, T/C (second compound 1 µM, first compound 0.949 µM) 75.3% | viability, T/C (second compound 1 µM, first compound 3 µM) 57% | viability, T/C [18] 106% | viability, T/C [19] 87.6% | viability, T/C [20] 81% | viability, T/C [21] 68.3% | viability, T/C (second compound 3.16 µM, first compound 0.949 µM) 55.6% | viability, T/C (second compound 3.16 µM, first compound 3 µM) 59.5% | viability, T/C [22] 79% | viability, T/C [23] 91.2% | viability, T/C [24] 64.9% | viability, T/C [25] 59.7% | viability, T/C (second compound 10 µM, first compound 0.949 µM) 47.4% | viability, T/C (second compound 10 µM, first compound 3 µM) 34.5%
640 nM: IC50 [5]
> 3000 nM: IC50 [1] | IC50 [2] | IC50 [3] | IC50 [4]

CC[C@@]1(O)C(=O)OCc2c1cc1n(c2=O)Cc2cc3c(CN(C)C)c(O)ccc3nc2-1
2.16 nM and 2.74 nM: IC50 (curve of compound)
inactive: viability, T/C (compound 0.000316 µM) 105% and 95.3% | viability, T/C (compound 0.001 µM) 84.7% and 94.4% | viability, T/C (compound 0.00316 µM) 32.5% and 43.5%
active: viability, T/C (compound 0.01 µM) 10.2% and 9.41% | viability, T/C (compound 0.0316 µM) 6.03% and 5.47% | viability, T/C (compound 0.1 µM) 3.25% and 3.14%
